The source of these data is patent US7138418B2, “Pentafluorobenzenesulfonamides and analogs” (Amgen, Inc., priority 1996, dated 2006).

The structures appear in SMILES notation.

In the first series the test system is LDL receptor expression in Hep G2 cells. In words: LDL receptor expression in Hep G2 cells by western-blot analysis. The series is classed as cell-based. The following applies: Homo sapiens, HepG2, minimum concentration at which a maximal induction of LDL receptor was observed. On the procedure: Compounds may be evaluated in vitro for their ability to increase LDL receptor expression using western-blot analysis, for example, as described in Tam et al. (1991) J. Biol. Chem. 266, 16764. Established animal models to evaluate hypocholesterolemic effects of compounds are known in the art. […] 81, 300; Evans et al. (1994) J. Lipid Res. 35, 1634; Lin et al (1995) J. Med. Chem. 38, 277.
Compounds were evaluated for their ability to increase LDL receptor expression in Hep G2 cells using western-blot analysis as described in Tam et al., J. Biol. Chem., 266, 16764 (1991).
For `CN(C)c1ccc(NS(=O)(=O)c2c(F)c(F)c(F)c(F)c2F)cc1` [Example 1, 4-(N,N-Dimethylamino)-1-pentafluorophenylsulfonamidobenzene], the EC (max) amounted to 0.5 µM.
In turn, `CN(C)c1cccc(NS(=O)(=O)c2c(F)c(F)c(F)c(F)c2F)c1` [Example 2, 3-(N,N-Dimethylamino)-1-pentafluorophenylsulfonamidobenzene] yielded an EC (max) of 5 µM.
`O=S(=O)(Nc1ccc2c(c1)OCCO2)c1c(F)c(F)c(F)c(F)c1F` [Example 3, 1,2-Ethylenedioxy-4-pentafluorophenylsulfonamidobenzene] had an EC (max) of 5 µM.
Turning to `O=S(=O)(Nc1ccc2c(c1)OCO2)c1c(F)c(F)c(F)c(F)c1F` [Example 4, 1,2-Methylenedioxy-4-pentafluorophenylsulfonamidobenzene], the EC (max) is at most 5 µM.
In turn, `COc1ccc(NS(=O)(=O)c2c(F)c(F)c(F)c(F)c2F)cc1O` [Example 6, 2-Hydroxy-1-methoxy-4-pentafluorophenylsulfonamidobenzene] showed an EC (max) of 0.15 µM.
On the same count and under the same terms, as for `COc1ccc(NS(=O)(=O)c2c(F)c(F)c(F)c(F)c2F)cc1` [Example 8, 4-Methoxy-1-pentafluorophenylsulfonamidobenzene], the figure is 0.5 µM; as for `O=S(=O)(Nc1cccc(O)c1)c1c(F)c(F)c(F)c(F)c1F` [Example 9, 3-Hydroxy-1-pentafluorophenylsulfonamidobenzene], 5 µM; as for `CCN(CC)c1ccc(NS(=O)(=O)c2c(F)c(F)c(F)c(F)c2F)cc1` [Example 12, 4-(N,N-Diethylamino)-1-pentafluorophenylsulfonamidobenzene], 5 µM.
`O=S(=O)(Nc1ccc2[nH]ncc2c1)c1c(F)c(F)c(F)c(F)c1F` [Example 15, 5-Pentafluorophenylsulfonamidoindazole] returned an EC (max) of 15 µM.
Compound `CN(C)c1ccc(N(C)S(=O)(=O)c2c(F)c(F)c(F)c(F)c2F)cc1` [Example 17, 4-(N,N-Dimethylamino)-1-(N-methylpentafluorophenylsulfonamido)benzene] showed an EC (max) of 5 µM.
`COc1cccc(NS(=O)(=O)c2c(F)c(F)c(F)c(F)c2F)c1` [Example 24, 3-Methoxy-1-pentafluorophenylsulfonamidobenzene] registered an EC (max) of 15 µM.
Same read-out and setting: as for `O=S(=O)(Nc1ccc(N2CCOCC2)cc1)c1c(F)c(F)c(F)c(F)c1F` [Example 25, 4-(1-Morpholino)-1-pentafluorophenylsulfonamidobenzene], the figure is 15 µM; as for `COc1ccc(N(C)S(=O)(=O)c2c(F)c(F)c(F)c(F)c2F)cc1F` [Example 30, 2-Fluoro-1-methoxy-4-(N-methylpentafluorophenylsulfonamido)benzene], 15 µM; as for `COc1ccc(NS(=O)(=O)c2c(F)c(F)c(F)c(F)c2F)cc1Br` [Example 31, 2-Bromo-1-methoxy-4-pentafluorophenylsulfonamidobenzene], at most 5 µM.
`COc1ccc(NS(=O)(=O)c2c(F)c(F)c(F)c(F)c2F)cc1Cl` [Example 32, 2-Chloro-1-methoxy-4-pentafluorophenylsulfonamidobenzene] displayed an EC (max) of 1.5 µM.

Tested on in the next series: not given
Assay: not given
Settings: not given
For `COc1ccc(NS(=O)(=O)c2c(F)c(F)c(F)c(F)c2F)cc1` [Example 8, 4-Methoxy-1-pentafluorophenylsulfonamidobenzene], the melting point (as a rule, the temperature, or range, at which the solid turns liquid) lay within 102 to 103 °C.
`O=S(=O)(Nc1ccc(Cl)nc1)c1c(F)c(F)c(F)c(F)c1F` [Example 36, 2-Chloro-5-pentafluorophenylsulfonamidopyridine]: the melting point is 144 to 145 °C.
The compound `COc1ccc(N(CCCCCO)S(=O)(=O)c2c(F)c(F)c(F)c(F)c2F)cc1O` [Example 37, 2-Hydroxy-1-methoxy-4-(N-(5-hydroxypentyl)-pentafluorophenylsulfonamido)benzene] returned a melting point of 118 °C.
Take `COc1cc(Br)c(NS(=O)(=O)c2c(F)c(F)c(F)c(F)c2F)cc1F` [Example 41, 1-Bromo-4-fluoro-5-methoxy-2-pentafluorophenylsulfonamidobenzene]: the melting point turned out to be 109 °C.
Same read-out and setting: as for `COc1ccc(NS(=O)(=O)c2c(F)c(F)c(F)c(F)c2F)cc1C(F)(F)F` [Example 49, 4-Methoxy-1-pentafluorophenylsulfonamido-3-trifluoromethylbenzene], the figure is 121 to 123 °C; as for `C=CCN(c1ccc(OC)cc1)S(=O)(=O)c1c(F)c(F)c(F)c(F)c1F` [Example 50, 4-Methoxy-1-(N-(2-propenyl)pentafluorophenylsulfonamido)benzene], 59 to 60 °C.
`C=CCCN(c1ccc(OC)cc1)S(=O)(=O)c1c(F)c(F)c(F)c(F)c1F` [Example 51, 1-(N-(3-Butenyl)pentafluorophenylsulfonamido)-4-methoxybenzene]: the melting point lay within 64 to 66 °C.
As to `COc1ccc(N(CC(O)CO)S(=O)(=O)c2c(F)c(F)c(F)c(F)c2F)cc1` (centres unmarked) [Example 53, 1-(N-(2,3-Dihydroxypropyl)pentafluorophenylsulfonamido)-4-methoxybenzene], the melting point was 130 to 131 °C.
Regarding `COc1ccc(N(CCC(O)CO)S(=O)(=O)c2c(F)c(F)c(F)c(F)c2F)cc1` (centres unmarked) [Example 54, 1-(N-(3,4-Dihydroxybutyl)pentafluorophenylsulfonamido)-4-methoxybenzene], the melting point lay within 126 to 128 °C.
Turning to `COc1ccc(N(CCCC(O)CO)S(=O)(=O)c2c(F)c(F)c(F)c(F)c2F)cc1` (centres unmarked) [Example 55, 1-(N-(4,5-Dihydroxypentyl)pentafluorophenylsulfonamido)-4-methoxybenzene], the melting point was 116 to 118 °C.
`COc1ccc(N(CCCCO)S(=O)(=O)c2c(F)c(F)c(F)c(F)c2F)cc1` [Example 56, 1-(N-(4-hydroxybutyl)pentafluorophenylsulfonamido)-4-methoxybenzene] came in with a melting point of 88 to 90 °C.
In turn, `COc1ccc(N(CCCCCO)S(=O)(=O)c2c(F)c(F)c(F)c(F)c2F)cc1` [Example 57, 4-Methoxy-1-(N-(5-hydroxypentyl)pentafluorophenylsulfonamido)benzene] came in with a melting point of 96 to 97 °C.
For the compound `COc1ccc(NS(=O)(=O)c2c(F)c(F)c(F)c(F)c2F)cc1[N+](=O)[O-]` [Example 58, 4-Methoxy-3-nitro-1-pentafluorophenylsulfonamidobenzene], the melting point was 95 to 97 °C.
With `COc1ccc(NS(=O)(=O)c2c(F)c(F)c(F)c(F)c2F)cc1N` [Example 59, 3-Amino-4-methoxy-1-pentafluorophenylsulfonamidobenzene], the melting point lay in the range of 142 to 143 °C.
